The test deals with E coli B44 (09:K90:K99). Description: Protection of Neonatal Mice from Lethal Enteropathogenic E coli Infection. The format is in vivo. To be noted: 4 day old mice, % reduction in mortality vs placebo, 10 days; for inhibition in vivo at 0.08 mg/kg: 0.08 mg/kg (dose of hydrochloride salt) b.i.d. for four days commencing 16 hours after infection; for inhibition in vivo at 0.4 mg/kg: 0.4 mg/kg (dose of hydrochloride salt) b.i.d. for four days commencing 16 hours after infection; for Protection %: Table 2, 10 mg/kg (dose of hydrochloride salt) b.i.d. for four days commencing 16 hours after infection; for inhibition in vivo at 2 mg/kg: 2 mg/kg (dose of hydrochloride salt) b.i.d. for four days commencing 16 hours after infection. The protocol: 4 day old mice were dosed orally with 50µl of phosphate buffered saline containing 1 x 10^5 organisms/ml of E coli B44 (09:K90:K99) an enteropathogenic strain originally isolated from a scouring calf. The mice were then dosed b.i.d. with either placebo or drug as the hydrochloride salt for four days commencing 16 hours after infection. The animals were left with their mothers throughout the experiment and a daily record of deaths were made. The experiment was terminated 10 days after infection of the mice.
The mortality in the drug group was then compared with the mortality in the placebo group using the following formula:- [formula] where Mp = mortality in group receiving placebo Md = mortality in group receiving drug
Statistical analysis was performed using 2 x 2 contingency tables (single tailed 'p'). Results are given in Tables 1 and 2. 'Protection %' is the same as '% Reduction in mortality' above.

Setting [1] is: Mus musculus, intraduodenal, 240 h, Table 1.

The term inhibition in vivo denotes the change of the read-out against control, counted positive when it falls.

`CNC(=S)Nc1cc(Cl)c(N=C2NCCN2)c(Cl)c1`: under setting [1], the inhibition in vivo at 0.08 mg/kg stood at 6% and the inhibition in vivo at 0.4 mg/kg was 6%.
As to `CSC(=NCc1ccc(F)cc1)Nc1cc(Cl)c(N=C2NCCN2)c(Cl)c1`, for the setting “Mus musculus, intraduodenal, 240 h, Table 1, 0.04 mg/kg (dose of hydrochloride salt) b.i.d. for four days commencing 16 hours after infection”, the inhibition in vivo at 0.04 mg/kg was found to be 40%. In addition, the inhibition in vivo at 0.08 mg/kg under setting [1] was determined as 29%.
For the compound `CN=C(Nc1ccc(C)c(N=C2NCCN2)c1)SC`, the Protection % is given as 13%.
As for `CN=C(Nc1cc(Cl)c(N=C2NCCN2)c(Cl)c1)SC`, under setting [1], the inhibition in vivo at 0.08 mg/kg is 22%, the inhibition in vivo at 0.4 mg/kg is 26% and the inhibition in vivo at 2 mg/kg stood at 13%.
Take `S=C(Nc1cc(Cl)c(N=C2NCCN2)c(Cl)c1)NC1CCCCC1`: under setting [1], the inhibition in vivo at 0.08 mg/kg came out at 6%.
Turning to `CSC(=Nc1cc(Cl)c(N=C2NCCN2)c(Cl)c1)N(C)C`, the inhibition in vivo at 0.08 mg/kg under setting [1] was found to be 13%.
With `CNC(=S)Nc1ccc(C)c(N=C2NCCN2)c1`, the Protection % is 5%.
Regarding `S=C(NCc1ccccc1)Nc1cc(Cl)c(N=C2NCCN2)c(Cl)c1`, the inhibition in vivo at 0.4 mg/kg under setting [1] was 21%.
For the compound `Cc1cc(NC(=S)NCc2ccc(F)cc2)cc(C)c1N=C1NCCN1`, the inhibition in vivo at 2 mg/kg under setting [1] came to 11%.
Turning to `CNC(=S)Nc1cc(C)c(N=C2NCCN2)c(C)c1`, under setting [1], the inhibition in vivo at 0.4 mg/kg was 43% and the inhibition in vivo at 2 mg/kg stood at 69%.

These data come from EP0149140A2, “Novel compounds” (BEECHAM GROUP PLC, priority 1983, dated 1985).
